Reference: US8415469B2, “Compounds and methods for kinase modulation, and indications therefor” (Plexxikon Inc., priority 2005, dated 2013)

How the values were obtained:
Type in all cases: biochemical
[1] = molecular target: T1, B-Raf V600E (Homo sapiens, UniProt P15056, V600E); experiment: AlphaScreen kinase assay, B-Raf V600E; details: read-out: IC50, activity toward kinase B-Raf V600E
T1 construct: P4254. pFastBacBD-CDC37 BRAF D437-K722-X, V600E; His6 with pFastBac HT leader (TEV site) (N); made in house; host or cells: Sf9 (baculovirus; chaperone CDC37 co-expressed)

[2] = molecular target: T2, c-Raf-1 (Homo sapiens, UniProt P04049); experiment: AlphaScreen kinase assay, c-Raf-1; details: read-out: IC50, activity toward kinase c-Raf-1
T2 construct: purchased Upstate Biotechnology

[3] = molecular target: T3, FGFR1 (Homo sapiens, UniProt P11362, C488A/C584S); experiment: AlphaScreen kinase assay, FGFR1; details: read-out: IC50, activity toward kinase FGFR
T3 construct: P1351.pET N6 BI-PTP FGFR A458-E765-X C488A, C584S; made in house; host or cells: E. coli (PTP1B co-expressed)

[4] = molecular target: T4, Fms (Homo sapiens, UniProt P07333); experiment: AlphaScreen kinase assay, Fms; details: read-out: IC50, activity toward kinase Fms
T4 construct: purchased Upstate Biotechnology

[5] = molecular target: T5, Jnk1 (Homo sapiens, UniProt P45983); experiment: AlphaScreen kinase assay, Jnk1; details: read-out: IC50, activity toward kinase Jnk1
T5 construct: purchased Upstate Biotechnology

[6] = molecular target: T6, Jnk2 (Homo sapiens, UniProt P45984); experiment: AlphaScreen kinase assay, Jnk2; details: read-out: IC50, activity toward kinase Jnk2
T6 construct: purchased Roche Protein Expression Group (Indianapolis, IN)
Source text: AlphaScreen assay was used to screen additional kinases. The assay is similarly dependent on the phosphorylation of a peptide substrate. In this assay, an antibody that recognizes phosphorylated substrate is bound to an acceptor bead. The peptide substrate is attached to biotin, which binds to a donor head that contains streptavidin. Thus phosphorylated substrate is bound by antibody and streptavidin, bringing the donor and acceptor heads into close proximity when kinase is not inhibited. The donor produces singlet oxygen which results in emission from the acceptor when they are in close proximity. Conversely, when kinase is inhibited, the donor and acceptor beads are not associated and the emission from the acceptor is reduced.
AlphaScreen assays were done using compounds dissolved in DMSO to a concentration of 20 mM. The compounds were diluted accordingly to the desired final concentrations in each sample well, using 1:3 serial dilution for a total of 8 concentration points.

[7] = molecular target: T7, Kit (Homo sapiens, UniProt P10721); experiment: AlphaScreen kinase assay, Kit; details: read-out: IC50, activity toward kinase Kit
T7 construct: P1332.N6 BI PTP KIT M552-K948-X COD; His6 (N); made in house; host or cells: E. coli (PTP1B co-expressed)

[8] = molecular target: T8, Ret (Homo sapiens, UniProt P07949); experiment: AlphaScreen kinase assay, Ret; details: read-out: IC50, activity toward kinase Ret
T8 construct: P1378.pET-SF BI-PTP RET H661-R1012 HIS; made in house
T8 sequence (P07949 with tags, fused parts or gaps): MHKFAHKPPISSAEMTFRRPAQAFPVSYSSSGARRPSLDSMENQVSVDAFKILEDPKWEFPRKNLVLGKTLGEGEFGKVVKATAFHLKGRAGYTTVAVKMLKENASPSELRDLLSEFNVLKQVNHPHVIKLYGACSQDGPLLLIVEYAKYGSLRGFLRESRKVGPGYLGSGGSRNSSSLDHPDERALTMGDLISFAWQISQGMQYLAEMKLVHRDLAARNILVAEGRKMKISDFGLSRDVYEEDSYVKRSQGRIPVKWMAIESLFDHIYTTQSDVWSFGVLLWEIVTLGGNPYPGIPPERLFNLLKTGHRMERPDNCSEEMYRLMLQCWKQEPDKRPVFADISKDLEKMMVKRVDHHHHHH

[9] = molecular target: T9, Jnk3 (Homo sapiens, UniProt P53779); experiment: AlphaScreen kinase assay, Jnk3; details: read-out: IC50, activity toward kinase Jnk3
T9 construct: purchased Upstate Biotechnology

[10] = molecular target: T10, B-Raf (Homo sapiens, UniProt P15056); experiment: AlphaScreen kinase assay, B-Raf; details: read-out: IC50, activity toward kinase B-Raf
T10 construct: purchased Upstate Biotechnology

[11] = molecular target: T11, Flt1 (Homo sapiens, UniProt P17948); experiment: AlphaScreen kinase assay, Flt1; details: read-out: IC50, activity toward kinase Flt1
T11 construct: P1826.pETN6 BI-PTP FLT1 M799-D1165-X WT; His6 (N); made in house; host or cells: E. coli (PTP1B co-expressed)
T11 sequence (P17948 with tags, fused parts or gaps): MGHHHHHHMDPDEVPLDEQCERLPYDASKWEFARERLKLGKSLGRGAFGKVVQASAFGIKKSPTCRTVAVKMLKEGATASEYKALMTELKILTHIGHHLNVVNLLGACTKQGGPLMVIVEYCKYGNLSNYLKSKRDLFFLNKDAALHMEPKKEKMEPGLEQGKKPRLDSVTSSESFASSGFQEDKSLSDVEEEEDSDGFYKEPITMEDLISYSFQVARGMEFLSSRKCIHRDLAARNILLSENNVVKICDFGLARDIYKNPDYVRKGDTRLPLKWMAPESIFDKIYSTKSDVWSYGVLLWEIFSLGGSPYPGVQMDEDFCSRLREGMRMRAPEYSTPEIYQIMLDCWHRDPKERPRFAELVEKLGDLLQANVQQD

Measured: IC50

T5 sequence (P45983 whole entry): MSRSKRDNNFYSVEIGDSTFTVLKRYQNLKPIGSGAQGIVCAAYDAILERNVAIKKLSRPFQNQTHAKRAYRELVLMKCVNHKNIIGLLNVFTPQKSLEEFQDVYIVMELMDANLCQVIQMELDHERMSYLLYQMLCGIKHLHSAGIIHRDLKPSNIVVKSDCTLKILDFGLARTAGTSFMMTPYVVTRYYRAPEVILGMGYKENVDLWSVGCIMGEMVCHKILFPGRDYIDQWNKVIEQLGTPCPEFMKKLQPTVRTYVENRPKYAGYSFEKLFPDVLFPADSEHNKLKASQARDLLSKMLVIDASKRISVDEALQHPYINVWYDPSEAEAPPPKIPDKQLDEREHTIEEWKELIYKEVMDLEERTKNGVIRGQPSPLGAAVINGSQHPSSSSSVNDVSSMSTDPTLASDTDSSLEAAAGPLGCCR
T9 sequence (P53779 whole entry): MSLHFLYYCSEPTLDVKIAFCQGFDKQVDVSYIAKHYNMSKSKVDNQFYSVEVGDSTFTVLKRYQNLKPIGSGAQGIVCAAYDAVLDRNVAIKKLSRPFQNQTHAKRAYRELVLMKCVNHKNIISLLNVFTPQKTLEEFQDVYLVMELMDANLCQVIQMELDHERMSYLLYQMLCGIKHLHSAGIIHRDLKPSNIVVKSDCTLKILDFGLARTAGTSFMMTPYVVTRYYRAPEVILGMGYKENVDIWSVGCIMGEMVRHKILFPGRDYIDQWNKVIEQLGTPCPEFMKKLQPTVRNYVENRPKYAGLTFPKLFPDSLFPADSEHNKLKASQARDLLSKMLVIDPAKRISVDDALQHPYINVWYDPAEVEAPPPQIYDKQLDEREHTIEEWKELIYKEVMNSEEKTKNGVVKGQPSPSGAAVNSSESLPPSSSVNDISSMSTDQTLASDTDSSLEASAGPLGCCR
T4 sequence (P07333 20-972): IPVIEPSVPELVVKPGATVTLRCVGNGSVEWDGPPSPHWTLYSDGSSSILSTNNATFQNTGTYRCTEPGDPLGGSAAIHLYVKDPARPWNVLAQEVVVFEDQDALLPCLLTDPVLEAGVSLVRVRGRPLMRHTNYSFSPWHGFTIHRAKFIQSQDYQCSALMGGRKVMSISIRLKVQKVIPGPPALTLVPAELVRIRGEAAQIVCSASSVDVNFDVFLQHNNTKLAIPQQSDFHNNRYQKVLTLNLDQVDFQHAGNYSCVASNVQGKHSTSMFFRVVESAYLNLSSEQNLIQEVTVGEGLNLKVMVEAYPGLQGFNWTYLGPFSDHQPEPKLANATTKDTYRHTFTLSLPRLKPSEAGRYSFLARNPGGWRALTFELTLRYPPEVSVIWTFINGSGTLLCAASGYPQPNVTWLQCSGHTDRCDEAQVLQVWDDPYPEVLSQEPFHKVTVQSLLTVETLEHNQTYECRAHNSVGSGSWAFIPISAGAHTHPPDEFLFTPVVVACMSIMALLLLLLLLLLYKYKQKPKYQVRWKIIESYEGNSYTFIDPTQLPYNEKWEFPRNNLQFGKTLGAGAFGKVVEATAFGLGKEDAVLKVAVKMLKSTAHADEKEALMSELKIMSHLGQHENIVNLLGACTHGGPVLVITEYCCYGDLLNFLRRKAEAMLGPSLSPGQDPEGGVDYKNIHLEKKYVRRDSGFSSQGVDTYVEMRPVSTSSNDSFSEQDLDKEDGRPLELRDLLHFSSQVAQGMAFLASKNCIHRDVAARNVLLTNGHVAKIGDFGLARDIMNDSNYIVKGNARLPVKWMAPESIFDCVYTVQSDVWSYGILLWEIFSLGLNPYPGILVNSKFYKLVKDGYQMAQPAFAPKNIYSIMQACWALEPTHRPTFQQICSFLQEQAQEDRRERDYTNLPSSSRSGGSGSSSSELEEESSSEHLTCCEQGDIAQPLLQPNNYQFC
T10 sequence (P15056 whole entry): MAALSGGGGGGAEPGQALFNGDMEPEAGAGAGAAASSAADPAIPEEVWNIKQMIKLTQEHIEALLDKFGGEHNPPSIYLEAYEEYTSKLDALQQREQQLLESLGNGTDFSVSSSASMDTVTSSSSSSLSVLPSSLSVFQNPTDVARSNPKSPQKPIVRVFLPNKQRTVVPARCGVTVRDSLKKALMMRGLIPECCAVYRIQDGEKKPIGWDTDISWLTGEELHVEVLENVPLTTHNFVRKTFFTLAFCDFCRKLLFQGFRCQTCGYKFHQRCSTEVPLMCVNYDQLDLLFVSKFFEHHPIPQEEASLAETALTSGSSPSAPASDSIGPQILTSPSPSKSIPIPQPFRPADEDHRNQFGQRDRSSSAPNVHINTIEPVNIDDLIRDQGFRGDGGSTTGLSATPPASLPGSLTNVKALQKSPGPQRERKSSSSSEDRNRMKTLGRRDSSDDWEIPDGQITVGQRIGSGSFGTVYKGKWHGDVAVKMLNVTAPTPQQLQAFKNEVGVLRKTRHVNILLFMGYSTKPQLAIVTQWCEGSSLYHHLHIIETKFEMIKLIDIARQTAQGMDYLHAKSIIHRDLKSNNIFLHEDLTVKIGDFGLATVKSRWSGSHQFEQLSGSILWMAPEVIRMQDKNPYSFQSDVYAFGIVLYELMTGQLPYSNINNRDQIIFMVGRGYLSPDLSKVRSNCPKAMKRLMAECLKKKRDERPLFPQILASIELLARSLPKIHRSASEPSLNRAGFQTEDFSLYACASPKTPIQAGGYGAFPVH
T1 sequence (P15056 with tags, fused parts or gaps V600E): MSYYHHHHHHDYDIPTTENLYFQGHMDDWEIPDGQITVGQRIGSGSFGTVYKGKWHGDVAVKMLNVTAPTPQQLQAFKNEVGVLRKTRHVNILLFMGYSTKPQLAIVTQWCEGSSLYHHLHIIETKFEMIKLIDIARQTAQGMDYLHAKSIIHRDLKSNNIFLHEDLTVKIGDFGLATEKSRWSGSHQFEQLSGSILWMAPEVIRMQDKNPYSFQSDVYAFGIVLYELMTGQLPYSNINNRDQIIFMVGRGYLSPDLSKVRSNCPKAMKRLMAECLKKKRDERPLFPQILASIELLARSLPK
T6 sequence (P45984 whole entry): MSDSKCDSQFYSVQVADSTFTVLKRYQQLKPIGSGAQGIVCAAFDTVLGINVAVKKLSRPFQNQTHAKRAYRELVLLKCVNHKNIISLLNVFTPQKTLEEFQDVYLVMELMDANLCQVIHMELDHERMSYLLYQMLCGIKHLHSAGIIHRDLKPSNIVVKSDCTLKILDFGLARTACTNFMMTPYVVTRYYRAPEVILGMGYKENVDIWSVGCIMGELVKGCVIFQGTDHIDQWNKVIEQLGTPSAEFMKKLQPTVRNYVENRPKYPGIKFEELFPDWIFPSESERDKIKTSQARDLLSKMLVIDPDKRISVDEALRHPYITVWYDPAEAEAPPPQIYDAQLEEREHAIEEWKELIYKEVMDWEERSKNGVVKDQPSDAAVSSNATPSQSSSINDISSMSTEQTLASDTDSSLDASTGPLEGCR
T7 sequence (P10721 with tags, fused parts or gaps): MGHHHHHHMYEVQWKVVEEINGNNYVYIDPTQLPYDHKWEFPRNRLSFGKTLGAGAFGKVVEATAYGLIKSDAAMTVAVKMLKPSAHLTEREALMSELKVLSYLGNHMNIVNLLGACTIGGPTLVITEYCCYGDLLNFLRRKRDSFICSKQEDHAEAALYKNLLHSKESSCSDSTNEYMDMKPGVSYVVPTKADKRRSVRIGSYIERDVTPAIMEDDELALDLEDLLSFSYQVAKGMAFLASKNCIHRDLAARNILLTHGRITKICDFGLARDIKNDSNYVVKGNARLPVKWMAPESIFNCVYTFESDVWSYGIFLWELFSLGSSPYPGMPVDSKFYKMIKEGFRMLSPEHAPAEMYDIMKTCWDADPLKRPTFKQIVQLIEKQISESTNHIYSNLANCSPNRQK
T3 sequence (P11362 458-765 C488A/C584S): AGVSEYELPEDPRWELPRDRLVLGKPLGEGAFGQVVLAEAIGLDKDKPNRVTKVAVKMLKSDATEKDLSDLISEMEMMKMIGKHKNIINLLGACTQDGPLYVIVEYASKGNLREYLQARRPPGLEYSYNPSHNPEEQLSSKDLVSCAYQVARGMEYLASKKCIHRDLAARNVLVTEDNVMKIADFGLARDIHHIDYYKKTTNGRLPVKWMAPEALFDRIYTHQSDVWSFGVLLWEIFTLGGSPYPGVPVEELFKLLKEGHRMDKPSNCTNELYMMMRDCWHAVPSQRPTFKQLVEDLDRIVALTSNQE
T2 sequence (P04049 whole entry): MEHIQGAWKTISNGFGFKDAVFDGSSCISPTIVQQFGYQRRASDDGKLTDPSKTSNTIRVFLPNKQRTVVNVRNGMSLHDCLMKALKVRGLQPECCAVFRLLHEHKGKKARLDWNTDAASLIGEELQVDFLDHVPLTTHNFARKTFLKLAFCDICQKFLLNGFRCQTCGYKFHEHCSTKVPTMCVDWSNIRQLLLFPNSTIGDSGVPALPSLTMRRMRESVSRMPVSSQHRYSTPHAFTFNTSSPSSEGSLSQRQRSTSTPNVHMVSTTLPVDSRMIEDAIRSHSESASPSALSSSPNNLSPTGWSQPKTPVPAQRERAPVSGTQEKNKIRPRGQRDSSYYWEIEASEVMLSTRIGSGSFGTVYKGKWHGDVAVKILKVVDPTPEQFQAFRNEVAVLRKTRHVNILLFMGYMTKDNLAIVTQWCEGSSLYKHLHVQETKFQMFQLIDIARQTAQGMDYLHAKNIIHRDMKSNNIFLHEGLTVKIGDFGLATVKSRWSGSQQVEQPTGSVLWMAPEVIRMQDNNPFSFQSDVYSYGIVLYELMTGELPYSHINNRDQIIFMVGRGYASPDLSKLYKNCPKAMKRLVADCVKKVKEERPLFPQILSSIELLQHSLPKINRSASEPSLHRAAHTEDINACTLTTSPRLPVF

Cc1c(NS(C)(=O)=O)cccc1C(=O)c1c[nH]c2ncc(-c3cccnc3)cc12 [Compound P-0121, N-[2-Methyl-3-(5-pyridin-3-yl-1H-pyrrolo[2,3-b]pyridine-3-carbonyl)-phenyl]-methanesulfonamide]
not listed: [9] | [10] | [11]
≤ 10 µM: all other assays above

Cn1cccc1-c1nc(-c2ccnc3[nH]ccc23)no1 [Compound P-0285]
≤ 10 µM: [5] | [6] | [9]

CCCCNC(=O)n1ccc2c(C(=O)c3c[nH]c4ncc(-c5ccc(Cl)cc5)cc34)cccc21 [Compound P-1602, 4-[5-(4-Chloro-phenyl)-1H-pyrrolo[2,3-b]pyridine-3-carbonyl]-indole-1-carboxylic acid butylamide]
≤ 10 µM: [10] | [1] | [11] | [4] | [5] | [6]

O=C(c1c[nH]c2ncc(-c3ccccc3)cc12)c1cccc2c1ccn2C(=O)NCc1ccccc1 [Compound P-1611, 4-(5-Phenyl-1H-pyrrolo[2,3-b]pyridine-3-carbonyl)-indole-1-carboxylic acid benzylamide]
≤ 10 µM: [1] | [4] | [5] | [6] | [9]

CCCCNC(=O)n1ccc2c(C(=O)c3c[nH]c4ncc(Br)cc34)cccc21 [Compound P-1687, 4-(5-Bromo-1H-pyrrolo[2,3-b]pyridine-3-carbonyl)-indole-1-carboxylic acid butylamide]
≤ 10 µM: [10] | [1] | [4] | [5] | [6] | [9]

CCCCCNC(=O)n1ccc2c(C(=O)c3c[nH]c4ncc(-c5cccnc5)cc34)cccc21 [Compound P-1702, 4-(5-Pyridin-3-yl-1H-pyrrolo[2,3-b]pyridine-3-carbonyl)-indole-1-carboxylic acid pentylamide]
≤ 10 µM: [10] | [1] | [4] | [5] | [6] | [9]

O=C(Nc1ccc(C(F)(F)F)cc1)Nc1cccc(C(=O)c2c[nH]c3ncc(-c4cccnc4)cc23)c1 [Compound P-1731, 1-[3-(5-Pyridin-3-yl-1H-pyrrolo[2,3-b]pyridine-3-carbonyl)-phenyl]-3-(4-trifluoromethyl-phenyl)-urea]
≤ 10 µM: [10] | [1] | [4] | [5] | [6]

O=C(Nc1cccc(C(=O)c2c[nH]c3ncc(-c4cccnc4)cc23)c1)Nc1ccc(Cl)c(C(F)(F)F)c1 [Compound P-1751, 1-(4-Chloro-3-trifluoromethyl-phenyl)-3-[3-(5-pyridin-3-yl-1H-pyrrolo[2,3-b]pyridine-3-carbonyl)-phenyl]-urea]
≤ 10 µM: [10] | [1] | [4] | [5] | [6]

O=C(Nc1cccc(C(=O)c2c[nH]c3ncc(-c4cccnc4)cc23)c1)Nc1cccc(C(F)(F)F)c1 [Compound P-1755, 1-[3-(5-Pyridin-3-yl-1H-pyrrolo[2,3-b]pyridine-3-carbonyl)-phenyl]-3-(3-trifluoromethyl-phenyl)-urea]
≤ 10 µM: [10] | [1] | [4] | [5] | [6]

O=C(Nc1ccncc1)Nc1cccc(C(=O)c2c[nH]c3ncccc23)c1 [Compound P-1760, 1-Pyridin-4-yl-3-[3-(1H-pyrrolo[2,3-b]pyridine-3-carbonyl)-phenyl]-urea]
≤ 10 µM: [10] | [1] | [4] | [5] | [6]

O=C(Nc1ccncc1)Nc1cccc(C(=O)c2c[nH]c3ncc(-c4cccnc4)cc23)c1 [Compound P-1777, 1-Pyridin-4-yl-3-[3-(5-pyridin-3-yl-1H-pyrrolo[2,3-b]pyridine-3-carbonyl)-phenyl]-urea]
≤ 10 µM: [10] | [1] | [5] | [6] | [9]

COc1cc(NC(=O)Nc2cccc(C(=O)c3c[nH]c4ncc(-c5cccnc5)cc34)c2)cc(C(F)(F)F)c1 [Compound P-1778, 1-(3-Methoxy-5-trifluoromethyl-phenyl)-3-[3-(5-pyridin-3-yl-1H-pyrrolo[2,3-b]pyridine-3-carbonyl)-phenyl]-urea]
≤ 10 µM: [10] | [1] | [4] | [5] | [6]

COc1ccc(NC(=O)Nc2cccc(C(=O)c3c[nH]c4ncc(-c5cccnc5)cc34)c2)cn1 [Compound P-1779, 1-(6-Methoxy-pyridin-3-yl)-3-[3-(5-pyridin-3-yl-1H-pyrrolo[2,3-b]pyridine-3-carbonyl)-phenyl]-urea]
≤ 10 µM: [10] | [1] | [4] | [5] | [6]

CCCCNC(=O)n1ccc2c(C(=O)c3c[nH]c4ncc(-c5ccc(OC)nc5)cc34)cccc21 [Compound P-1827, 4-[5-(6-Methoxy-pyridin-3-yl)-1H-pyrrolo[2,3-b]pyridine-3-carbonyl]-indole-1-carboxylic acid butylamide]
≤ 10 µM: [10] | [4] | [5] | [6] | [9]
